Reference: PMC6225423, “Synthesis, Structural and Thermal Studies of 3-(1-Benzyl-1,2,3,6-tetrahydropyridin-4-yl)-5-ethoxy-1H-indole (D2AAK1_3) as Dopamine D2 Receptor Ligand” (Molecules : A Journal of Synthetic Chemistry and Natural …, 2018)

Target: T1, human dopamine D2 receptor (Homo sapiens, UniProt P14416)
T1 construct: gene DRD2; cloned human D2S receptor
Test: [3H]spiperone competition radioligand binding, membranes of CHO-K1 cells stably expressing human D2S

T1 sequence (P14416 1-414 isoform P14416-2): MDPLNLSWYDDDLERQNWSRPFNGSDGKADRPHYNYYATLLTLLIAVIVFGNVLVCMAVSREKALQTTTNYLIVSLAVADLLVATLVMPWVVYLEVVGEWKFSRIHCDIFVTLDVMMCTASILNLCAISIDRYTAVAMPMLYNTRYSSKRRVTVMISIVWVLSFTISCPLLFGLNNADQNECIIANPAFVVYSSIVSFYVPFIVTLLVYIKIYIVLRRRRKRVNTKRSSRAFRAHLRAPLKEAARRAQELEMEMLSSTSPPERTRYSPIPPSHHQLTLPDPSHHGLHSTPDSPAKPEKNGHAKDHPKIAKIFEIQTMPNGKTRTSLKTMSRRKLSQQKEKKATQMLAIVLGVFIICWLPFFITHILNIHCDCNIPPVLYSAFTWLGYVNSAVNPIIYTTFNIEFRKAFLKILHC

CCOc1ccc2[nH]cc(C3=CCN(Cc4ccccc4)CC3)c2c1 [D2AAK1_3, 3-(1-Benzyl-1,2,3,6-tetrahydropyridin-4-yl)-5-ethoxy-1H-indole]
Ki: 151 nM
